{"source": "patent US4091006A", "about": "“Esters of 3-hydroxyindone compounds” (priority 1975, dated 1978)"}
{"tested_on": "egg of the two-spotted mite", "test": "Mite Ovicide Test", "format": "in vivo, Tetranychus urticae (Koch)", "design": "key to Mite Ova rating: 1: no mortality; 3: an approximately 50% mortality; 5: 100% mortality", "details": "spray on eggs, 4 days", "source_text": "(§1) The test procedures were as follows:\nThe plants were allowed to dry thoroughly.\n(§2) Compositions were rated on the basis of percent kill with a rating of 1 indicating no mortality; 3 signifying an approximately 50% mortality and 5 indicating 100% mortality at the indicated dosage."}
{"compound": "Cc1cc(C)c(C2=C(OC(=O)c3ccc([N+](=O)[O-])cc3)c3ccccc3C2=O)c(C)c1", "note": "[3-(4-Nitrobenzoyloxy)-2-(2',4',6'-trimethylphenyl)indone]", "Mite Ova rating": "5 (100% mortality)"}
{"compound": "CCCCCCCCCCCC(=O)OC1=C(c2ccc(C)cc2C)C(=O)c2ccccc21", "note": "[2-(2',4'-Dimethylphenyl)-3-(lauroyloxy)indone]", "Mite Ova rating": "5 (100% mortality)"}
{"compound": "CC(C)c1cccc(C(C)C)c1C1=C(OC(=O)C(C)(C)C)c2ccccc2C1=O", "note": "[2-(2'6'-diisopropyl)phenyl-3-pivaloyloxyindone]", "Mite Ova rating": 1}
{"compound": "Cc1cc(C)c(C2=C(OC(=O)c3ccc(Cl)cc3)c3ccccc3C2=O)c(C)c1", "note": "[3-(4-Chlorobenzoyloxy)-2-(2',4',6'-trimethylphenyl)indone]", "Mite Ova rating": "5 (100% mortality)"}
{"compound": "Cc1cc(C)c(C(=O)OC2=C(c3c(C)cc(C)cc3C)C(=O)c3ccccc32)c(C)c1", "note": "[3-(2,4,6-Trimethylbenzoyloxy)-2-(2',4',6'-trimethylphenyl)indone]", "Mite Ova rating": 1}
{"compound": "O=C1C(c2c(Cl)cccc2Cl)=C(OC(=O)c2c(Cl)cccc2Cl)c2ccccc21", "note": "[3-(2,6-Dichlorobenzoyloxy)-2-(2',6'-dichlorophenyl)indone]", "Mite Ova rating": 1}
{"compound": "Cc1cccc(C(=O)OC2=C(c3c(C)cc(C)cc3C)C(=O)c3ccccc32)c1", "note": "[3-(3-Methylbenzoyloxy)-2-(2',4',6'-trimethylphenyl)indone]", "Mite Ova rating": "5 (100% mortality)"}
{"compound": "COc1ccc(C(=O)OC2=C(c3c(C)cc(C)cc3C)C(=O)c3ccccc32)cc1", "note": "[3-(4-Methoxybenzoyloxy)-2-(2',4',6'-trimethylphenyl)indone]", "Mite Ova rating": "5 (100% mortality)"}
{"compound": "Cc1cc(C)c(C2=C(OC(=O)N(C)C)c3ccccc3C2=O)c(C)c1", "note": "[2-(2',4',6'-Trimethylphenyl)-3-(dimethylcarbamoyloxy)indone]", "Mite Ova rating": "5 (100% mortality)"}
{"compound": "CCc1cccc(CC)c1C1=C(OC(=O)C(C)(C)C)c2ccccc2C1=O", "note": "[2-(2',6'-Diethylphenyl)-3-(pivaloyloxy)indone]", "Mite Ova rating": "5 (100% mortality)"}
{"compound": "CCCCC(CC)C(=O)OC1=C(c2ccccc2OC)C(=O)c2ccccc21", "note": "(stereo not drawn) [3-(2-Ethylhexanoyloxy)-2-(2'-methoxyphenyl-indone]", "Mite Ova rating": 1}
{"compound": "Cc1ccc(C(=O)OC2=C(c3c(C)cc(C)cc3C)C(=O)c3ccccc32)c(C)c1", "note": "[3-(2,4-Dimethylbenzoyloxy)-2-(2',4',6'-trimethylphenyl)indone]", "Mite Ova rating": "5 (100% mortality)"}
{"compound": "O=C(OC1=C(c2c(Cl)cccc2Cl)C(=O)c2ccccc21)c1ccc(Cl)c(Cl)c1", "note": "[3-(3,4-Dichlorobenzoyloxy)-2-(2',6'-dichlorophenyl)indone]", "Mite Ova rating": "5 (100% mortality)"}
{"compound": "Cc1ccccc1C(=O)OC1=C(c2c(Cl)cccc2Cl)C(=O)c2ccccc21", "note": "[3-(2-Methylbenzoyloxy)-2-(2',6'-dichlorophenyl)indone]", "Mite Ova rating": "5 (100% mortality)"}
{"tested_on": "Perennial rye grass, crabgrass, red root pigweed, mustard", "test": "Preliminary Herbicide Seed Germination Test", "details": "rating/maximum 15: 100 ppm only, crabgrass omitted, each rated 1 (no injury) to 5 (no seedlings emerged)", "quoted_text": "The thus-prepared stock suspension contained 0.5 percent by weight of compound. The test concentrations employed in the tests described hereinbelow were obtained by diluting the stock suspension with water. The test procedures were as follows:\nThe following seeds were used in this test:\nCrabgrass -- Digitaria san-\nMustard -- Brassica pincea var.\nEach of above mixtures is rolled separately in 5 gallon containers for approximately one-half hour on ball mill to insure uniform mixing of seeds and soil. For each compound four 3-inch pots are filled with soil to within 11/2 inches of top of pots. To 2 of these pots are added 70 cc. of Mixture I. To the remaining 2 pots are added 70 cc. of Mixture II. The seed-soil mixture is tamped firmly, and the pots are removed to the greenhouse and watered lightly. About 2 hours after planting, 25 milliliters of the test formulation were added to each of 2 pots for each soil-seed mixture; i.e., one replicate of each seed mixture per concentration. An equal volume of a water solution containing acetone and an emulsifier in the same concentration as the herbicidal mixture but without the candidate herbicide is also added to each of the soil-seed mixtures. These pots are used as check or control units. The test compounds are formulated by standard procedure of solution in acetone, addition of an emulsifier, and dilution with water. Tests were conducted on all compositions at low concentration (100 ppm.). Certain compositions were also tested at high concentration (1000 ppm). The pots were held in the greenhouse and watered lightly until results were taken. Ten to twelve days after application of chemical, injury is noted for each species by comparing treated vs. untreated pots. Ratings are made at both the high and the low concentrations (1000 ppm and 100 ppm) according to the following designations:\n4 = few seedlings emerged and/or very severe stunting\n3 = moderate reduction in stand and/or moderate stunting\n2 = very slight reduction in stand and/or slight stunting\n1 = no injury; seedlings appear no different with respect to stand or growth than untreated controls\nAccordingly, the maximum rating for one test seed species tested at both high and low concentration is 10 and the maximum possible total preemergence rating is 40 (10 for each of the four test seed species). […] In some tests the crabgrass experiment was omitted. In these tests the maximum total rating for species tested at both high and low concentrations is 30 and 15 for species tested only at low concentrations."}
{"compound": "CC(C)c1cccc(C(C)C)c1C1=C(OC(=O)C(C)(C)C)c2ccccc2C1=O", "note": "[2-(2'6'-diisopropyl)phenyl-3-pivaloyloxyindone]", "Herbicide (total preemergence rating)": "3/15"}
{"compound": "Cc1cc(C)c(C(=O)OC2=C(c3c(C)cc(C)cc3C)C(=O)c3ccccc32)c(C)c1", "note": "[3-(2,4,6-Trimethylbenzoyloxy)-2-(2',4',6'-trimethylphenyl)indone]", "Herbicide (total preemergence rating)": "10/15"}
{"compound": "CCc1cccc(CC)c1C1=C(OC(=O)C(C)(C)C)c2ccccc2C1=O", "note": "[2-(2',6'-Diethylphenyl)-3-(pivaloyloxy)indone]", "Herbicide (total preemergence rating)": "12/15"}
{"compound": "Cc1ccc(C(=O)OC2=C(c3c(C)cc(C)cc3C)C(=O)c3ccccc32)c(C)c1", "note": "[3-(2,4-Dimethylbenzoyloxy)-2-(2',4',6'-trimethylphenyl)indone]", "Herbicide (total preemergence rating)": "11/15"}
{"tested_on": "Perennial rye grass, crabgrass, red root pigweed, mustard", "test": "Preliminary Herbicide Seed Germination Test", "details": "rating/maximum 20: 100 ppm only, four species, each rated 1 (no injury) to 5 (no seedlings emerged)"}
{"compound": "CCCCCCCCCCCC(=O)OC1=C(c2ccc(C)cc2C)C(=O)c2ccccc21", "note": "[2-(2',4'-Dimethylphenyl)-3-(lauroyloxy)indone]", "Herbicide (total preemergence rating)": "14/20"}
{"compound": "Cc1cc(C)c(C2=C(OC(=O)N(C)C)c3ccccc3C2=O)c(C)c1", "note": "[2-(2',4',6'-Trimethylphenyl)-3-(dimethylcarbamoyloxy)indone]", "Herbicide (total preemergence rating)": "14/20"}
{"compound": "CCCCC(CC)C(=O)OC1=C(c2ccccc2OC)C(=O)c2ccccc21", "note": "(stereo not drawn) [3-(2-Ethylhexanoyloxy)-2-(2'-methoxyphenyl-indone]", "Herbicide (total preemergence rating)": "4/20"}
{"tested_on": "Perennial rye grass, crabgrass, red root pigweed, mustard", "test": "Preliminary Herbicide Seed Germination Test", "details": "rating/maximum 30: 100 and 1000 ppm, crabgrass omitted, each rated 1 (no injury) to 5 (no seedlings emerged)"}
{"compound": "Cc1cc(C)c(C2=C(OC(=O)c3ccc([N+](=O)[O-])cc3)c3ccccc3C2=O)c(C)c1", "note": "[3-(4-Nitrobenzoyloxy)-2-(2',4',6'-trimethylphenyl)indone]", "Herbicide (total preemergence rating)": "26/30"}
{"compound": "Cc1cc(C)c(C2=C(OC(=O)c3ccc(Cl)cc3)c3ccccc3C2=O)c(C)c1", "note": "[3-(4-Chlorobenzoyloxy)-2-(2',4',6'-trimethylphenyl)indone]", "Herbicide (total preemergence rating)": "24/30"}
{"compound": "COc1ccc(C(=O)OC2=C(c3c(C)cc(C)cc3C)C(=O)c3ccccc32)cc1", "note": "[3-(4-Methoxybenzoyloxy)-2-(2',4',6'-trimethylphenyl)indone]", "Herbicide (total preemergence rating)": "21/30"}
{"tested_on": "Perennial rye grass, crabgrass, red root pigweed, mustard", "test": "Preliminary Herbicide Seed Germination Test", "details": "rating/maximum 40: 100 and 1000 ppm, four species, each rated 1 (no injury) to 5 (no seedlings emerged), 10-12 days"}
{"compound": "O=C1C(c2c(Cl)cccc2Cl)=C(OC(=O)c2c(Cl)cccc2Cl)c2ccccc21", "note": "[3-(2,6-Dichlorobenzoyloxy)-2-(2',6'-dichlorophenyl)indone]", "Herbicide (total preemergence rating)": "8/40"}
{"compound": "Cc1cccc(C(=O)OC2=C(c3c(C)cc(C)cc3C)C(=O)c3ccccc32)c1", "note": "[3-(3-Methylbenzoyloxy)-2-(2',4',6'-trimethylphenyl)indone]", "Herbicide (total preemergence rating)": "26/40"}
{"compound": "O=C(OC1=C(c2c(Cl)cccc2Cl)C(=O)c2ccccc21)c1ccc(Cl)c(Cl)c1", "note": "[3-(3,4-Dichlorobenzoyloxy)-2-(2',6'-dichlorophenyl)indone]", "Herbicide (total preemergence rating)": "29/40"}
{"compound": "Cc1ccccc1C(=O)OC1=C(c2c(Cl)cccc2Cl)C(=O)c2ccccc21", "note": "[3-(2-Methylbenzoyloxy)-2-(2',6'-dichlorophenyl)indone]", "Herbicide (total preemergence rating)": "31/40"}
{"tested_on": "adults and nymphal stages of the two-spotted mite", "test": "Mite Foliage Spray Test", "format": "in vivo, Tetranychus urticae (Koch)", "design": "key: 1: no mortality; 3: an approximately 50% mortality; 5: 100% mortality", "details": "4 days", "source_text": "as §1, §2"}
{"compound": "Cc1cc(C)c(C2=C(OC(=O)c3ccc([N+](=O)[O-])cc3)c3ccccc3C2=O)c(C)c1", "note": "[3-(4-Nitrobenzoyloxy)-2-(2',4',6'-trimethylphenyl)indone]", "Mite Adult rating": "5 (100% mortality)"}
{"compound": "CCCCCCCCCCCC(=O)OC1=C(c2ccc(C)cc2C)C(=O)c2ccccc21", "note": "[2-(2',4'-Dimethylphenyl)-3-(lauroyloxy)indone]", "Mite Adult rating": "5 (100% mortality)"}
{"compound": "CC(C)c1cccc(C(C)C)c1C1=C(OC(=O)C(C)(C)C)c2ccccc2C1=O", "note": "[2-(2'6'-diisopropyl)phenyl-3-pivaloyloxyindone]", "Mite Adult rating": 1}
{"compound": "Cc1cc(C)c(C2=C(OC(=O)c3ccc(Cl)cc3)c3ccccc3C2=O)c(C)c1", "note": "[3-(4-Chlorobenzoyloxy)-2-(2',4',6'-trimethylphenyl)indone]", "Mite Adult rating": "5 (100% mortality)"}
{"compound": "Cc1cc(C)c(C(=O)OC2=C(c3c(C)cc(C)cc3C)C(=O)c3ccccc32)c(C)c1", "note": "[3-(2,4,6-Trimethylbenzoyloxy)-2-(2',4',6'-trimethylphenyl)indone]", "Mite Adult rating": 1}
{"compound": "O=C1C(c2c(Cl)cccc2Cl)=C(OC(=O)c2c(Cl)cccc2Cl)c2ccccc21", "note": "[3-(2,6-Dichlorobenzoyloxy)-2-(2',6'-dichlorophenyl)indone]", "Mite Adult rating": 1}
{"compound": "Cc1cccc(C(=O)OC2=C(c3c(C)cc(C)cc3C)C(=O)c3ccccc32)c1", "note": "[3-(3-Methylbenzoyloxy)-2-(2',4',6'-trimethylphenyl)indone]", "Mite Adult rating": "5 (100% mortality)"}
{"compound": "COc1ccc(C(=O)OC2=C(c3c(C)cc(C)cc3C)C(=O)c3ccccc32)cc1", "note": "[3-(4-Methoxybenzoyloxy)-2-(2',4',6'-trimethylphenyl)indone]", "Mite Adult rating": "3 (an approximately 50% mortality)"}
{"compound": "Cc1cc(C)c(C2=C(OC(=O)N(C)C)c3ccccc3C2=O)c(C)c1", "note": "[2-(2',4',6'-Trimethylphenyl)-3-(dimethylcarbamoyloxy)indone]", "Mite Adult rating": "3 (an approximately 50% mortality)"}
{"compound": "CCc1cccc(CC)c1C1=C(OC(=O)C(C)(C)C)c2ccccc2C1=O", "note": "[2-(2',6'-Diethylphenyl)-3-(pivaloyloxy)indone]", "Mite Adult rating": "5 (100% mortality)"}
{"compound": "CCCCC(CC)C(=O)OC1=C(c2ccccc2OC)C(=O)c2ccccc21", "note": "(stereo not drawn) [3-(2-Ethylhexanoyloxy)-2-(2'-methoxyphenyl-indone]", "Mite Adult rating": 1}
{"compound": "Cc1ccc(C(=O)OC2=C(c3c(C)cc(C)cc3C)C(=O)c3ccccc32)c(C)c1", "note": "[3-(2,4-Dimethylbenzoyloxy)-2-(2',4',6'-trimethylphenyl)indone]", "Mite Adult rating": 1}
{"compound": "O=C(OC1=C(c2c(Cl)cccc2Cl)C(=O)c2ccccc21)c1ccc(Cl)c(Cl)c1", "note": "[3-(3,4-Dichlorobenzoyloxy)-2-(2',6'-dichlorophenyl)indone]", "Mite Adult rating": "5 (100% mortality)"}
{"compound": "Cc1ccccc1C(=O)OC1=C(c2c(Cl)cccc2Cl)C(=O)c2ccccc21", "note": "[3-(2-Methylbenzoyloxy)-2-(2',6'-dichlorophenyl)indone]", "Mite Adult rating": "5 (100% mortality)"}
